Common to all, as to assay type: cell-based
The subject of experiment [1] is Actinobacillus pleuropneumoniae serotype 1. Put plainly: Antibacterial MIC, agar-dilution or broth-dilution microtiter test. Particulars: Strain A: Actinobacillus pleuropneumoniae serotype 1. As to the method:
(§1) The MIC's in Table I and Table II were determined by standard agar-dilution assays or broth-dilution microtiter test.

For experiment [2], the system named is Actinobacillus pleuropneumoniae serotype 7. The experiment is described as above. The following applies: Strain B: Actinobacillus pleuropneumoniae serotype 7. The procedure: as §1
The test system of experiment [3] is Escherichia coli 25922 (QC strain). Described as above. Particulars: Strain F: Escherichia coli 25922 (QC strain). As to the method: as §1
The next experiment deals with Escherichia coli IN-F6-7. The experiment is described as above. The following applies: INF67; Strain E: Escherichia coli IN-F6-7. As to the method:
as §1

Experiment [4] deals with Klebsiella pneumoniae 3699. The description is as above. Particulars: Strain K: Klebsiella pneumoniae 3699. As to the method:
as §1

For experiment [5], the system named is Klebsiella pneumoniae 3753. The experiment is described as above. The following applies: Strain J: Klebsiella pneumoniae 3753. As to the method: as §1
Another experiment concerns Pasteurella 8217. The description is as above. Particulars: Strain C: Pasteurella 8217. The procedure:
as §1

The test system of a further experiment is Pasteurella 8229. Described as above. The following applies: Strain D: Pasteurella 8229. The procedure: as §1
The subject of experiment [6] is Staphylococcus aureus 29213 (QC strain). Described as above. The following applies: Strain H: Staphylococcus aureus 29213 (QC strain). As to the method: as §1
In experiment [7] the test system is Staphylococcus aureus 5-1. Described as above. Particulars: 51; Strain G: Staphylococcus aureus 5-1. The procedure:
as §1

Experiment [8] relates to Streptococcus pneumoniae 2349. The description is as above. The following applies: Strain L: Streptococcus pneumoniae 2349. As to the method:
as §1

Experiment [9] concerns Streptococcus pneumoniae 49619 (QC strain). Described as above. The following applies: Strain M: Streptococcus pneumoniae 49619 (QC strain). As to the method: as §1
Another experiment concerns salmonella LD4-8. The experiment is described as above. Particulars: LD48; Strain I: salmonella LD4-8. As to the method:
as §1

The subject of a further experiment is M. gallisepticum BG44T. Put plainly: Mycoplasma susceptibility testing (MIC). Particulars: Mycoplasmoides gallisepticum. The procedure: as §1
For another experiment, the system named is M. gallisepticum S6. Put plainly: Mycoplasma susceptibility testing (MIC). Particulars: Mycoplasmoides gallisepticum. As to the method: as §1
The subject of another experiment is M. hyorinis BTS-7. Put plainly: Mycoplasma susceptibility testing (MIC). The procedure:
as §1

In brackets after ≈: the same amount, converted by molar mass.

In general, MIC refers to the smallest concentration in the dilution series that meets the test's criterion for growth inhibition. Low values mean a more susceptible organism, high ones a less susceptible organism. As to `CC[C@H]1OC(=O)C[C@@H](O)[C@H](C)[C@@H](O[C@@H]2O[C@H](C)[C@@H](O)[C@H](N(C)C)[C@H]2O)[C@@H](CCN2CCCCC2)C[C@@H](C)C(=O)/C=C/C(C)=C/[C@@H]1CN(C)Cc1ccccc1` [Compound 4f, (4R,5S,6S,7R,9R,11E,13E,15R,16R)-15-((benzyl(methyl)amino)methyl)-6-(((2R,3R,4S,5S,6R)-4-(dimethylamino)-3,5-dihydroxy-6-methyltetrahydro-2H-pyran-2-yl)oxy)-16-ethyl-4-hydroxy-5,9,13-trimethyl-7-(2-(piperidin-1-yl)ethyl)oxacyclohexadeca-11,13-diene-2,10-dione], the MIC in [1] is 16 µg/mL (≈ 20.8 µM); in [2] it was 64 µg/mL (≈ 83.1 µM); in experiment [3] it was 4 µg/mL (≈ 5.19 µM); against Escherichia coli IN-F6-7, 4 µg/mL (≈ 5.19 µM); in experiment [4], greater than 256 µg/mL; in [5] it was 32 µg/mL (≈ 41.6 µM). The MIC in the experiment on Pasteurella 8217 is less than 0.12 µg/mL; in the experiment with Pasteurella 8229 it was 0.12 µg/mL (≈ 0.156 µM); in experiment [6] it was 2 µg/mL (≈ 2.6 µM); in experiment [7], 128 µg/mL (≈ 166 µM); in experiment [8], less than 0.12 µg/mL; in experiment [9], 0.5 µg/mL (≈ 0.649 µM). The MIC is 4 µg/mL (≈ 5.19 µM) in the experiment with salmonella LD4-8, less than 0.12 µg/mL with M. gallisepticum BG44T, 0.24 µg/mL (≈ 0.312 µM) with M. gallisepticum S6 and 0.98 µg/mL (≈ 1.27 µM) against M. hyorinis BTS-7.

With `CC[C@H]1OC(=O)C[C@@H](O)[C@H](C)[C@@H](O[C@@H]2O[C@H](C)[C@@H](O)[C@H](N(C)C)[C@H]2O)[C@@H](CCN2C[C@H](C)C[C@H](C)C2)C[C@@H](C)C(=O)/C=C/C(C)=C/[C@@H]1CO[C@@H]1O[C@H](C)[C@@H](O)[C@@H](OC)[C@H]1OC` [Tilmicosin, reference compound], the MIC is 32 µg/mL (≈ 36.8 µM) in experiment [1]; 32 µg/mL (≈ 36.8 µM) in [2]; 8 µg/mL (≈ 9.2 µM) in experiment [3]; 16 µg/mL (≈ 18.4 µM) in the experiment on Escherichia coli IN-F6-7; greater than 256 µg/mL in experiment [4]; 64 µg/mL (≈ 73.6 µM) in experiment [5]. The minimum inhibitory concentration (MIC) was 8 µg/mL (≈ 9.2 µM) against Pasteurella 8217; 0.5 µg/mL (≈ 0.575 µM) in the experiment with Pasteurella 8229; 0.5 µg/mL (≈ 0.575 µM) in experiment [6]; greater than 256 µg/mL in experiment [7]; 0.5 µg/mL (≈ 0.575 µM) in experiment [8]; 8 µg/mL (≈ 9.2 µM) in experiment [9]. Also, the MIC in the experiment with salmonella LD4-8 was 32 µg/mL (≈ 36.8 µM); against M. gallisepticum BG44T it was less than 0.12 µg/mL; in the experiment on M. gallisepticum S6, less than 0.12 µg/mL; with M. hyorinis BTS-7, 3.91 µg/mL (≈ 4.5 µM).

For `CC[C@H]1OC(=O)C[C@@H](O)[C@H](C)[C@@H](O[C@@H]2O[C@H](C)[C@@H](O[C@H]3C[C@@](C)(O)[C@@H](O)[C@H](C)O3)[C@H](N(C)C)[C@H]2O)[C@@H](CC=O)C[C@@H](C)C(=O)/C=C/C(C)=C/[C@@H]1CO[C@@H]1O[C@H](C)[C@@H](O)[C@@H](OC)[C@H]1OC` [Tylosin, reference compound], the MIC was 16 µg/mL (≈ 17.5 µM) in experiment [1]; 8 µg/mL (≈ 8.73 µM) in experiment [2]; 256 µg/mL (≈ 279 µM) in experiment [3]; 256 µg/mL (≈ 279 µM) against Escherichia coli IN-F6-7; greater than 256 µg/mL in [4]; greater than 256 µg/mL in experiment [5]. Moreover, the MIC in the experiment on Pasteurella 8217 was 32 µg/mL (≈ 34.9 µM); against Pasteurella 8229, 32 µg/mL (≈ 34.9 µM); in [6] it was 2 µg/mL (≈ 2.18 µM); in experiment [7], greater than 256 µg/mL; in experiment [8] it was less than 0.12 µg/mL; in experiment [9], 2 µg/mL (≈ 2.18 µM). Besides, the minimum inhibitory concentration (MIC) in the experiment on salmonella LD4-8 is greater than 256 µg/mL; against M. gallisepticum BG44T, less than 0.12 µg/mL; with M. gallisepticum S6 it was less than 0.12 µg/mL; against M. hyorinis BTS-7, 1.95 µg/mL (≈ 2.13 µM).

As to `CC[C@H]1OC(=O)C[C@@H](O)[C@H](C)[C@@H](O[C@@H]2O[C@H](C)[C@@H](O)[C@H](N(C)C)[C@H]2O)[C@@H](CCN2CCCCC2)C[C@@H](C)C(=O)/C=C/C(C)=C/[C@@H]1CN1CCCCC1` [Zuprevo, reference compound], the MIC in experiment [1] is 64 µg/mL (≈ 87.2 µM); in [2], 64 µg/mL (≈ 87.2 µM); in [3] it was 4 µg/mL (≈ 5.45 µM); in the experiment on Escherichia coli IN-F6-7, 4 µg/mL (≈ 5.45 µM); in experiment [4], greater than 256 µg/mL; in [5], 32 µg/mL (≈ 43.6 µM). Moreover, the MIC was 1 µg/mL (≈ 1.36 µM) against Pasteurella 8217; 1 µg/mL (≈ 1.36 µM) in the experiment with Pasteurella 8229; 256 µg/mL (≈ 349 µM) in experiment [6]; greater than 256 µg/mL in experiment [7]; 0.5 µg/mL (≈ 0.681 µM) in experiment [8]; 256 µg/mL (≈ 349 µM) in experiment [9]. The minimal inhibitory concentration (MIC) with salmonella LD4-8 is 8 µg/mL (≈ 10.9 µM); in the experiment with M. gallisepticum BG44T it was less than 0.12 µg/mL; in the experiment on M. gallisepticum S6 it was less than 0.12 µg/mL; against M. hyorinis BTS-7 it was 1.95 µg/mL (≈ 2.66 µM).

The values are drawn from patent publication US10287275B2, “16-member triamilide derivatives and uses thereof” (VICTOR PHARMA CO., LTD. ZHENJIANG, priority 2015, dated 2019).
